Legend:
Type in all cases: in vivo
[1] = system: Setaria viridis (L.) Beauv. (Se); experiment: Test for herbicidal effect by upland field soil treatment (Test Example 2), Se
Outline: (§1)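 Pre-emergence soil treatment: wettable powder diluted in water and sprayed on soil just sown with Ec and Se seeds, delivering 100 g active ingredient per 10 ares in 100 liters per 10 ares. Herbicidal effect was rated against a fixed scale 21 days later, after greenhouse growth.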

[2] = system: Chenopodium album L. (Ch); experiment: Test for herbicidal effect to broadleaf weeds by upland field soil treatment (Test Example 6), Ch; conditions: 25 g/10 a active ingredient, 30th day
Protocol: (§2) Test for herbicidal effect to broadleaf weeds by upland field soil treatment
(§3) An upland field soil was filled in a plastic pot of 80 cm^2. Seeds of Polygonum lapathifolium L. subsp. nodosum (Pers.) Kitam. (Po) and Chenopodium album L. (Ch) were sowed, followed by covering with the same soil. Wettable powders produced in accordance with the Formulation 1 were diluted with water and sprayed uniformly on the soil surface using a small sprayer, […] Then, breeding was made in a greenhouse. At the 30th day from the treatment, the herbicidal effect of each wettable powder was examined in accordance with the standard shown in Table 40.

[3] = system: Echinochloa oryzicola Vasing. (Eo); experiment: Test for herbicidal effect by paddy field soil treatment (Test Example 1); conditions: application amount (active ingredient) 100 g/10 a, examined at the 21st day from the treatment, index per Table 40
Outline: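 Scored on a standard scale at day 21 in the greenhouse: herbicidal effect of wettable powder applied to flooded water (3 cm depth) at 100 g a.i./10 ares, one day after sowing Eo into puddled paddy soil.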

[4] = system: Echinochloa crus-galli (L.) Beauv. var. crusgalli (Ec); experiment: Test for herbicidal effect by upland foliage treatment (Test Example 3); conditions: 100 g/10 a active ingredient, examined at 14th day
Outline: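 Scored 14 days post-spray against a graded standard: greenhouse-grown Ec, 2 weeks old in upland soil, received whole-foliage application of diluted wettable powder (100 g active ingredient per 10 ares, spray volume 100 L per 10 ares).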

[5] = system: Echinochloa crus-galli (L.) Beauv. var. crusgall (Ec); experiment: Test for herbicidal effect by upland field soil treatment (Test Example 2), Ec
Outline: as §1

[6] = system: Polygonum lapathifolium L. subsp. nodosum (Pers.) Kitam. (Po); experiment: Test for herbicidal effect to broadleaf weeds by upland field soil treatment (Test Example 6), Po; conditions: 25 g/10 a active ingredient, 30th day
Protocol: as §2, §3

[7] = system: rice (Or); experiment: Test for crop selectivity by paddy field soil treatment (Test Example 4), phytotoxicity to rice; conditions: transplanted two-leaf stage rice, 100 g/10 a active ingredient, 21st day
Outline: (§4)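 Puddled paddy soil sown with Eo seeds, two-leaf rice transplanted at 2 cm depth, flooded 3 cm. Next day, wettable powder diluted in water was dropped on the water surface at 100 g a.i. per 10 ares. Herbicidal effect and rice phytotoxicity scored visually 21 days after treatment, greenhouse.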

[8] = system: Echinochloa oryzicola Vasing. (Eo); experiment: Test for crop selectivity by paddy field soil treatment (Test Example 4), herbicidal effect on Eo; conditions: 100 g/10 a active ingredient, 21st day
Outline: as §4

[9] = application amount (active ingredient) 100 g/10 a, examined at the 21st day from the treatment, index per Table 40
[10] = 100 g/10 a active ingredient, examined at 21st day

| Compound | Herbicidal effect to Se [1, 9] | Herbicidal effect to Ch [2] | Herbicidal effect to Eo [3] | Herbicidal effect to Ec [4] | Herbicidal effect to Ec [5, 9] | Herbicidal effect to Po [6] | Herbicidal effect to Se [1, 10] | Herbicidal effect to Ec [5, 10] | Phytotoxicity to Or [7] | Herbicidal effect to Eo [8] |
| --- | --- | --- | --- | --- | --- | --- | --- | --- | --- | --- |
| CC1(C)CC(S(=O)(=O)Cc2ccccc2Cl)=NO1 [Compound 1-2] | 5 (A herbicidal effect or phytotoxicity of 90% or more) | 4 (A herbicidal effect or phytotoxicity of 70% to less than 90%) | 5 (A herbicidal effect or phytotoxicity of 90% or more) | 4 (A herbicidal effect or phytotoxicity of 70% to less than 90%) | 5 (A herbicidal effect or phytotoxicity of 90% or more) | – | – | – | – | – |
| CCCOc1ccccc1CS(=O)(=O)C1=NOC(C)(C)C1 [Compound 1-46] | 5 (A herbicidal effect or phytotoxicity of 90% or more) | 4 (A herbicidal effect or phytotoxicity of 70% to less than 90%) | 5 (A herbicidal effect or phytotoxicity of 90% or more) | 4 (A herbicidal effect or phytotoxicity of 70% to less than 90%) | 5 (A herbicidal effect or phytotoxicity of 90% or more) | 5 (A herbicidal effect or phytotoxicity of 90% or more) | – | – | – | – |
| CC1(C)CC(S(=O)(=O)Cc2cc(F)ccc2F)=NO1 [Compound 1-498] | – | 5 (A herbicidal effect or phytotoxicity of 90% or more) | 5 (A herbicidal effect or phytotoxicity of 90% or more) | 5 (A herbicidal effect or phytotoxicity of 90% or more) | – | 5 (A herbicidal effect or phytotoxicity of 90% or more) | 5 (A herbicidal effect or phytotoxicity of 90% or more) | 5 (A herbicidal effect or phytotoxicity of 90% or more) | – | – |
| CC1(C)CC(S(=O)(=O)Cc2c(F)cccc2[N+](=O)[O-])=NO1 [Compound 1-499] | – | 4 (A herbicidal effect or phytotoxicity of 70% to less than 90%) | 5 (A herbicidal effect or phytotoxicity of 90% or more) | 5 (A herbicidal effect or phytotoxicity of 90% or more) | – | 5 (A herbicidal effect or phytotoxicity of 90% or more) | 5 (A herbicidal effect or phytotoxicity of 90% or more) | 5 (A herbicidal effect or phytotoxicity of 90% or more) | – | – |
| CC1(C)CC(S(=O)(=O)Cc2c(F)cc(F)cc2F)=NO1 [Compound 1-500] | – | 4 (A herbicidal effect or phytotoxicity of 70% to less than 90%) | 5 (A herbicidal effect or phytotoxicity of 90% or more) | 5 (A herbicidal effect or phytotoxicity of 90% or more) | – | 5 (A herbicidal effect or phytotoxicity of 90% or more) | 5 (A herbicidal effect or phytotoxicity of 90% or more) | 5 (A herbicidal effect or phytotoxicity of 90% or more) | – | – |
| CC1(C)CC(S(=O)(=O)Cc2c(F)ccc(F)c2F)=NO1 [Compound 1-501] | – | 5 (A herbicidal effect or phytotoxicity of 90% or more) | 5 (A herbicidal effect or phytotoxicity of 90% or more) | 5 (A herbicidal effect or phytotoxicity of 90% or more) | – | 5 (A herbicidal effect or phytotoxicity of 90% or more) | 5 (A herbicidal effect or phytotoxicity of 90% or more) | 5 (A herbicidal effect or phytotoxicity of 90% or more) | – | – |
| COC(=O)c1cccc(CS(=O)(=O)C2=NOC(C)(C)C2)c1[N+](=O)[O-] [Compound 1-503] | – | – | 5 (A herbicidal effect or phytotoxicity of 90% or more) | 4 (A herbicidal effect or phytotoxicity of 70% to less than 90%) | – | – | 5 (A herbicidal effect or phytotoxicity of 90% or more) | 5 (A herbicidal effect or phytotoxicity of 90% or more) | 0 (A herbicidal effect or phytotoxicity of 0% to less than 10%) | 5 (A herbicidal effect or phytotoxicity of 90% or more) |
| O=S(=O)(Cc1c(F)cccc1F)C1=NOC(C2CC2)(C2CC2)C1 [Compound 1-520] | – | – | 5 (A herbicidal effect or phytotoxicity of 90% or more) | 4 (A herbicidal effect or phytotoxicity of 70% to less than 90%) | – | – | 5 (A herbicidal effect or phytotoxicity of 90% or more) | 5 (A herbicidal effect or phytotoxicity of 90% or more) | 1 (A herbicidal effect or phytotoxicity of 10% to less than 30%) | 5 (A herbicidal effect or phytotoxicity of 90% or more) |
| Cc1cc(C)cc(CS(=O)(=O)C2=NOC(C)(C)C2)c1 [Compound 1-523] | – | 5 (A herbicidal effect or phytotoxicity of 90% or more) | 5 (A herbicidal effect or phytotoxicity of 90% or more) | 5 (A herbicidal effect or phytotoxicity of 90% or more) | – | 5 (A herbicidal effect or phytotoxicity of 90% or more) | 5 (A herbicidal effect or phytotoxicity of 90% or more) | 5 (A herbicidal effect or phytotoxicity of 90% or more) | – | – |
| CCOc1cccc(F)c1CS(=O)(=O)C1=NOC(C)(C)C1 [Compound 1-526] | – | 5 (A herbicidal effect or phytotoxicity of 90% or more) | 5 (A herbicidal effect or phytotoxicity of 90% or more) | 5 (A herbicidal effect or phytotoxicity of 90% or more) | – | 5 (A herbicidal effect or phytotoxicity of 90% or more) | 5 (A herbicidal effect or phytotoxicity of 90% or more) | 5 (A herbicidal effect or phytotoxicity of 90% or more) | – | – |
| CC12CCCCCC1C(S(=O)(=O)Cc1c(F)cccc1F)=NO2 (centres unmarked) [Compound 1-556] | – | – | 5 (A herbicidal effect or phytotoxicity of 90% or more) | 4 (A herbicidal effect or phytotoxicity of 70% to less than 90%) | – | – | 4 (A herbicidal effect or phytotoxicity of 70% to less than 90%) | 5 (A herbicidal effect or phytotoxicity of 90% or more) | 0 (A herbicidal effect or phytotoxicity of 0% to less than 10%) | 5 (A herbicidal effect or phytotoxicity of 90% or more) |
| CCCCOc1cccc(Cl)c1CS(=O)(=O)C1=NOC(C)(C)C1 [Compound 1-574] | – | – | 5 (A herbicidal effect or phytotoxicity of 90% or more) | 4 (A herbicidal effect or phytotoxicity of 70% to less than 90%) | – | – | 5 (A herbicidal effect or phytotoxicity of 90% or more) | 5 (A herbicidal effect or phytotoxicity of 90% or more) | 1 (A herbicidal effect or phytotoxicity of 10% to less than 30%) | 5 (A herbicidal effect or phytotoxicity of 90% or more) |
| C=CCOC(=O)c1ccccc1CS(=O)(=O)C1=NOC(C)(C)C1 [Compound 1-599] | – | – | 5 (A herbicidal effect or phytotoxicity of 90% or more) | 4 (A herbicidal effect or phytotoxicity of 70% to less than 90%) | – | – | 5 (A herbicidal effect or phytotoxicity of 90% or more) | 5 (A herbicidal effect or phytotoxicity of 90% or more) | 1 (A herbicidal effect or phytotoxicity of 10% to less than 30%) | 5 (A herbicidal effect or phytotoxicity of 90% or more) |
